In patent publication US20110224226A1, “COMPOSITIONS AND METHODS FOR INCREASING BLOOD PLATELET LEVELS IN HUMANS” (AKARX, Inc., priority 2006, published 2011):

Key:
[1] = 4-week repeat dose toxicity in the dog; format: in vivo
[2] = pharmacokinetics after intravenous and oral administration in mice; format: in vivo; settings: mouse, plasma
Excerpt: After a single intravenous administration of the drug of Formula I as the monomaleate salt to mice and dogs, plasma concentrations of Formula I decreased in a biphasic manner.

human c-Mpl-Ba/F3 cells = assay: proliferation of cultured human c-Mpl-Ba/F3 cells; format: cell-based; settings: concentration-dependent; maximum effect similar to that of rhTPO
3A4 = 3A4 (Homo sapiens, UniProt P08684); assay: inhibition of human liver cytochrome P450 3A4; format: in vitro ADME; settings: human liver cytochrome P450 isoenzyme
Chain of 3A4 (P08684 whole entry): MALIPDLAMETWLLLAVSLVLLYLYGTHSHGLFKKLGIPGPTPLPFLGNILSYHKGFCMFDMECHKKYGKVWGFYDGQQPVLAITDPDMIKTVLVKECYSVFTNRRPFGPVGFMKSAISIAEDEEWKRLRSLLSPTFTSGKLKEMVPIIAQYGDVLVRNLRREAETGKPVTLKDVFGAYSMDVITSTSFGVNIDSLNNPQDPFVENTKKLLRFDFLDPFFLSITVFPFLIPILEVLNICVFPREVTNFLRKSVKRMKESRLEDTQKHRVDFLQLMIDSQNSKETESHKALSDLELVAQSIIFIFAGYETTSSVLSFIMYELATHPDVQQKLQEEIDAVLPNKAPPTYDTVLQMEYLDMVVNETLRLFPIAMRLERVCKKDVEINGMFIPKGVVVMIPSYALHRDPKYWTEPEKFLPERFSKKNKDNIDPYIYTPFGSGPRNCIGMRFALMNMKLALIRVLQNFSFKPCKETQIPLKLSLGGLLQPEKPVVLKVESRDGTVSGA

O=C(Nc1nc(-c2cc(Cl)cs2)c(N2CCN(C3CCCCC3)CC2)s1)c1cnc(N2CCC(C(=O)O)CC2)c(Cl)c1 [Formula I, 1-(3-chloro-5-{[4-(4-chlorothiophen-2-yl)-5-(4-cyclohexylpiperazin-1-yl)thiazol-2-yl]carbamoyl}pyridin-2-yl)piperadine-4-carboxylic acid]
muscle lesions ([1]; any dose): No muscle lesions were observed | renal findings at the end of the recovery period ([1]; high dose animals (100, 300 mg/kg/day), all other renal lesions resolved): regeneration of renal tubular epithelial persisted in the majority of the high dose animals | microscopic changes in the cortex of the kidney ([1]; monomaleate salt, 10, 30, 100, 300 mg/kg/day for 4 weeks): epithelial cell regeneration of proximal tubules and interstitial subacute inflammation | half-life ([2]; mice, single intravenous administration as the monomaleate salt, read-out: terminal elimination half-life (t1/2) (converted)): 2.7 h | bioavailability ([2]; oral administration, read-out: absolute bioavailability): 91% | proliferation of cultured human c-Mpl-Ba/F3 cells (human c-Mpl-Ba/F3 cells): stimulates the proliferation | inhibition of CYP3A4 (3A4): did not inhibit
